According to patent US20220041647A1, “ESTRA-1,3,5(10)-TRIENE COMPOUNDS CONDENSED IN POSITION 16(17) WITH A PYRAZOLE RING AS INHIBITORS OF 17-HSD1” (FORENDO PHARMA LTD, priority 2018, published 2022):

What was measured:
[1] = molecular target: T1, recombinant human 17β-HSD2 (Homo sapiens, UniProt P37059); experiment: Inhibition of recombinant human 17β-HSD2 (estradiol to estrone conversion, HPLC/radioactivity); type: biochemical; details: compound 1 μM; 50 nM estradiol, 1 mM NADH, 30 min RT
T1 construct: made in house; host or cells: Sd9 (Sf9) insect cells, baculovirus (Bac to Bac Expression System)
T1 sequence (P37059 1-387): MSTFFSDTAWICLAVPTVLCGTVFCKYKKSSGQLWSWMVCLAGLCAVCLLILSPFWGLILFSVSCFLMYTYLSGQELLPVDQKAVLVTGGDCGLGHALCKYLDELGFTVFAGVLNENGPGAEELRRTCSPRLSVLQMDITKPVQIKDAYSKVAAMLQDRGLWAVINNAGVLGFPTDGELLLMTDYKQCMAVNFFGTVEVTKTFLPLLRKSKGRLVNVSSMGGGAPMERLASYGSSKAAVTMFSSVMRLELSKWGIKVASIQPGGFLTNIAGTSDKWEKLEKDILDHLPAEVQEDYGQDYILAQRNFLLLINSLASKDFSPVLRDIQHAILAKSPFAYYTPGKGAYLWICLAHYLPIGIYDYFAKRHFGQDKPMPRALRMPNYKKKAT
In short: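 Membrane extract of Sf9 cells expressing recombinant human 17β-HSD2 (4 μg/ml), in 20 mM KH2PO4 pH 8.5 with 50 nM ^3H-spiked estradiol and 1 mM NADH, 30 min at RT, 1% DMSO. Compound at 1 μM or 0.1 μM; estrone formation by HPLC radioactivity, % inhibition relative to uninhibited conversion.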

[2] = test system: HSD1 enzyme that is expressed in rabbit placenta tissue; experiment: Inhibition of E1 to E2 conversion in rabbit placenta tissue homogenate; type: biochemical; details: compound 100 nM, 30 nM estrone, 1 mM β-NADPH, 30 min
In short: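 Rabbit placenta homogenate (20 mM KH2PO4, 1 mM EDTA, pH 7.4) incubated 30 min with 1 mM β-NADPH, 30 nM estrone plus 5 nM [3H]-estrone tracer, and inhibitor at 1 μM or 0.1 μM (1% DMSO). Stopped with TCA; estrone and estradiol resolved by HPLC with scintillation counting; % inhibition = 100 − % conversion relative to uninhibited control.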

[3] = Metabolic stability assay, human hepatocyte incubations; type: in vitro ADME; details: compound 1 μM, human hepatocytes, 0-60 min at 37° C.; read-out: Human hepatocytes MetStab T½ min
In short: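 Compounds at 1 μM (1% DMSO final) incubated with human hepatocytes at 37 °C for 0, 10, 20, 40 and 60 min. Parent measured by LC-MS/MS as % remaining versus time zero; T1/2 obtained by regression of the disappearance curve.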

| SMILES | inhibition at 1 µM [1] [%] | Rabbit placenta inhibition % @100 nM [2] [%] | half-life at 1 μM [3] [min] |
| --- | --- | --- | --- |
| CN(C)C(=O)CC[C@@H]1c2c[nH]nc2[C@@]2(C)CCC3c4cccc(F)c4CCC3C12 (stereo partly drawn) [Compound 222, 3-((8aS,12S)-3-fluoro-8a-methyl-1,2,6b,7,8,8a,10,12,12a,12b-decahydronaphtho[2′,1′:4,5]indeno[1,2-c]pyrazol-12-yl)-N,N-dimethylpropanamide] | 0 | 11 | 12 |
| C[C@]12CCC3c4cccc(F)c4CCC3C1[C@H](CCC(=O)Nc1ncccc1F)c1c[nH]nc12 (stereo partly drawn) [Compound 231, 3-((8aS,12S)-3-fluoro-8a-methyl-1,2,6b,7,8,8a,10,12,12a,12b-decahydronaphtho[2′,1′:4,5]indeno[1,2-c]pyrazol-12-yl)-N-(3-fluoropyridin-2-yl)propanamide] | 4 | 35 | 29 |
